Source: ChEMBL document CHEMBL4665641, “Lead optimization and efficacy evaluation of quinazoline-based BET family inhibitors for potential treatment of cancer and inflammatory diseases” (Bioorg Med Chem Lett, 2019)
Each block holds one compound with its values, some of them ahead of it.

Tests used:
[1] = molecular target: T1, Bromodomain-containing protein 4 (Homo sapiens, UniProt O60885); test: Inhibition of human full-length recombinant N-terminal His-tagged BRD4 (2 to 1362 residues) expressed in Sf9 cells using histone H4 peptide containing acetylated lysine residues as substrate preincubated with enzyme for 30 mins followed by incubation with substrate for 30 mins by Alphascreen assay […]
[2] = Cmax in CD-1 mouse at 10 mg/kg, po; format: ADME, organism-based; design: route oral, dose 10 mg/kg; conditions: in vivo
MV4-11 = test: Cytotoxicity against human MV4-11 cells assessed as inhibition of cell viability; format: functional, cell-based
[3] = AUC(0 to infinity) in CD-1 mouse at 2 mg/kg, iv; format: ADME, organism-based; design: time infinity, route intravenous, dose 2 mg/kg; conditions: in vivo; for AUC: mouse; for AUC(0-inf): CD-1, mouse
[4] = Half life in CD-1 mouse at 2 mg/kg, iv; format: ADME, organism-based; conditions: in vivo
[5] = AUC(0 to infinity) in CD-1 mouse at 10 mg/kg, po; format: ADME, organism-based; design: route oral, time infinity, dose 10 mg/kg; conditions: CD-1, mouse, in vivo
[6] = Plasma clearance in CD-1 mouse at 2 mg/kg, iv; format: ADME, organism-based
[7] = Half life in CD-1 mouse at 10 mg/kg, po; format: ADME, organism-based; conditions: in vivo
[8] = Volume of distribution at steady state in CD-1 mouse at 2 mg/kg, iv; format: ADME, organism-based; conditions: in vivo, read-out: Vdss
[9] = molecular target: T1, Bromodomain-containing protein 4; test: Competitive binding affinity to human partial length BRD4 (BD1,2) (N44 to E460 residues) expressed in bacterial expression system by BROMOscan assay
[10] = Cmax in CD-1 mouse at 2 mg/kg, iv measured after 5 mins; format: ADME, organism-based; design: route intravenous, dose 2 mg/kg; conditions: CD-1, mouse, in vivo, read-out: Cmax
[11] = Oral bioavailability in CD-1 mouse at 10 mg/kg; format: ADME, organism-based; conditions: CD-1, mouse, in vivo
[12] = Stability in mouse liver microsomes assessed as half life; format: ADME, Microsome

Structure (SMILES): Cc1noc(C)c1-c1ccc2nc(N3CCN(CCN(C)C)CC3)nc(N3CCOC[C@@H]3c3ccccc3)c2c1
- IC50 (MV4-11): 690 nM
- AUC [3]: 585 ng·h/mL

Structure (SMILES): Cc1noc(C)c1-c1ccc2nc(N3CCC4(CCC(=O)N4C)CC3)nc(N3CCOC[C@@H]3c3ccccc3)c2c1
- IC50 (MV4-11): 1380 nM
- Kd [9]: 51 nM

Structure (SMILES): Cc1noc(C)c1-c1ccc2nc(-c3cnn(CC(C)(C)O)c3)nc(N3CCOC[C@@H]3C3CCCC3)c2c1
- IC50 (MV4-11): 1540 nM
- t1/2 [12]: 0.033 h
- Kd [9]: 155 nM

Structure (SMILES): Cc1noc(C)c1-c1ccc2nc(-c3cnn(CC(C)(C)O)c3)nc(N3CCOC[C@@H]3C3CCC3)c2c1
- IC50 (MV4-11): 2200 nM
- t1/2 [12]: 0.3 h
- Kd [9]: 195 nM

Structure (SMILES): Cc1noc(C)c1-c1ccc2nc(N3CCN(CCN(C)C)CC3)nc(N3CCOC[C@H]3c3ccccc3)c2c1
- IC50 (MV4-11): 1280 nM

Structure (SMILES): Cn1cc(-c2ccc3nc(-c4cnn(CC(C)(C)O)c4)nc(N4CCOC[C@@H]4c4ccccc4)c3c2)ccc1=O
- half-life [4]: 2.2 h
- AUC(0-inf) [5]: 16100 ng·h/mL
- IC50 (MV4-11): 740 nM
- clearance [6]: 12.3 mL/min/kg
- half-life [7]: 1.5 h
- Vd [8]: 1.89 L/kg
- Kd [9]: 69 nM
- AUC(0-inf) [3]: 2730 ng·h/mL
- Cmax [10]: 1860 ng/mL
- IC50 [1]: 57 nM
- bioavailability [11]: 118%
- Cmax ([2]; CD-1, mouse, read-out: Cmax): 1980 ng/mL

Structure (SMILES): Cn1cc(-c2ccc3nc(-c4cnn(CC(C)(C)O)c4)nc(N4CCOC[C@@H]4C4CCCCC4)c3c2)ccc1=O
- IC50 (MV4-11): 530 nM
- Kd [9]: 25 nM

Structure (SMILES): Cc1noc(C)c1-c1ccc2nc(N3CCC4(CCN(C)C4=O)CC3)nc(N3CCOC[C@@H]3c3ccccc3)c2c1
- IC50 (MV4-11): 1360 nM
- Kd [9]: 110 nM

Structure (SMILES): Cc1noc(C)c1-c1ccc2nc(C(=O)NC3CCN(C)CC3)nc(N3CCOC[C@@H]3c3ccccc3)c2c1
- IC50 (MV4-11): 1600 nM
- Kd [9]: 210 nM

Structure (SMILES): Cn1cc(-c2ccc3nc(-c4cnn(CC(C)(C)O)c4)nc(N4CCOC[C@@H]4c4ccc(Cl)cc4)c3c2)ccc1=O
- IC50 (MV4-11): 1140 nM
- Kd [9]: 119 nM

Structure (SMILES): Cn1cc(-c2ccc3nc(-c4cnn(CC(C)(C)O)c4)nc(N4CCOC[C@@H]4C4CC4)c3c2)ccc1=O
- IC50 (MV4-11): 2350 nM
- Kd [9]: 2200 nM

Structure (SMILES): Cc1noc(C)c1-c1ccc2nc(-c3cnn(CC(C)(C)O)c3)nc(N3CCOC[C@@H]3C3CCCCC3)c2c1
- IC50 (MV4-11): 1430 nM
- t1/2 [12]: 0.067 h
- Kd [9]: 123 nM

Structure (SMILES): Cc1cc(-c2ccc3nc(-c4cnn(CC(C)(C)O)c4)nc(N4CCOC[C@@H]4C4CC4)c3c2)cn(C)c1=O
- Kd [9]: 70 nM

Structure (SMILES): Cn1cc(-c2ccc3nc(-c4cnn(CC(C)(C)O)c4)nc(N4CCOC[C@@H]4c4ccc(F)cc4)c3c2)ccc1=O
- IC50 (MV4-11): 870 nM
- Kd [9]: 160 nM

Structure (SMILES): Cn1cc(-c2ccc3nc(-c4cnn(CC(C)(C)O)c4)nc(N4CCOC[C@@H]4c4cccs4)c3c2)ccc1=O
- half-life [4]: 2.3 h
- AUC(0-inf) [5]: 22900 ng·h/mL
- IC50 (MV4-11): 980 nM
- clearance [6]: 6.4 mL/min/kg
- half-life [7]: 1.6 h
- Vd [8]: 1.08 L/kg
- Kd [9]: 300 nM
- AUC(0-inf) [3]: 5550 ng·h/mL
- Cmax [10]: 2040 ng/mL
- IC50 [1]: 165 nM
- bioavailability [11]: 83%
- Cmax ([2]; CD-1, mouse, read-out: Cmax): 2090 ng/mL

Now from value to compound, other results behind:

- IC50 [1]: 72 nM
- Cmax ([2]; mouse): 934 ng/mL
Structure (SMILES): Cc1noc(C)c1-c1ccc2nc(-c3cnn(CCO)c3)nc(N3CCOCC3c3ccccc3)c2c1 (configuration not stated)

- half-life [4]: 2.4 h
- AUC(0-inf) [5]: 12600 ng·h/mL
- clearance [6]: 5.9 mL/min/kg
- half-life [7]: 2.8 h
- Vd [8]: 1.58 L/kg
- Kd [9]: 305 nM
- AUC(0-inf) [3]: 5720 ng·h/mL
- Cmax [10]: 1800 ng/mL
- IC50 [1]: 155 nM
- bioavailability [11]: 44%
- Cmax ([2]; CD-1, mouse, read-out: Cmax): 1120 ng/mL
Structure (SMILES): Cc1noc(C)c1-c1ccc2nc(-c3cnn(CC(C)(C)O)c3)nc(N3CCOC[C@@H]3c3ccc(Cl)cc3)c2c1
- IC50 (MV4-11): 1600 nM

- Kd [9]: 260 nM
Structure (SMILES): Cc1noc(C)c1-c1ccc2nc(-c3cnn(CC(C)(C)O)c3)nc(N3CCOC[C@H]3c3ccccc3)c2c1
- IC50 (MV4-11): 1730 nM

- half-life [4]: 1.4 h
- AUC(0-inf) [5]: 21200 ng·h/mL
- clearance [6]: 6.9 mL/min/kg
- half-life [7]: 1.7 h
- Vd [8]: 0.82 L/kg
- Kd [9]: 68 nM
- AUC(0-inf) [3]: 4950 ng·h/mL
- Cmax [10]: 2580 ng/mL
- IC50 [1]: 90 nM
- bioavailability [11]: 86%
- Cmax ([2]; CD-1, mouse, read-out: Cmax): 2670 ng/mL
Structure (SMILES): Cc1noc(C)c1-c1ccc2nc(-c3cnn(CC(C)(C)O)c3)nc(N3CCN(S(C)(=O)=O)C[C@@H]3c3ccccc3)c2c1
- IC50 (MV4-11): 1130 nM

- Kd [9]: 42 nM
Structure (SMILES): CC(=O)N1CCN(c2nc(N3CCOC[C@@H]3c3ccccc3)c3cc(-c4c(C)noc4C)ccc3n2)CC1
- IC50 (MV4-11): 1430 nM

- Kd [9]: 99 nM
Structure (SMILES): Cc1noc(C)c1-c1ccc2nc(-c3cnn(CCO)c3)nc(N3CCOC[C@@H]3c3ccccc3)c2c1

- Kd [9]: 73 nM
Structure (SMILES): CNC(=O)C1CCN(c2nc(N3CCOC[C@@H]3c3ccccc3)c3cc(-c4c(C)noc4C)ccc3n2)CC1
- IC50 (MV4-11): 970 nM

- Kd [9]: 120 nM
Structure (SMILES): Cc1noc(C)c1-c1ccc2nc(-c3cnn(CC(N)=O)c3)nc(N3CCOC[C@@H]3c3ccccc3)c2c1
- IC50 (MV4-11): 2020 nM

- half-life [4]: 1.5 h
- AUC(0-inf) [5]: 21900 ng·h/mL
- clearance [6]: 7.3 mL/min/kg
- half-life [7]: 1.7 h
- Vd [8]: 0.72 L/kg
- Kd [9]: 81 nM
- AUC(0-inf) [3]: 4640 ng·h/mL
- Cmax [10]: 2450 ng/mL
- IC50 [1]: 140 nM
- bioavailability [11]: 95%
- Cmax ([2]; CD-1, mouse, read-out: Cmax): 3450 ng/mL
Structure (SMILES): CC(=O)N1CCN(c2nc(-c3cnn(CC(C)(C)O)c3)nc3ccc(-c4c(C)noc4C)cc23)[C@@H](c2ccccc2)C1
- IC50 (MV4-11): 850 nM

- half-life [4]: 1.4 h
- AUC(0-inf) [5]: 17700 ng·h/mL
- clearance [6]: 7.3 mL/min/kg
- half-life [7]: 2.4 h
- Vd [8]: 1.01 L/kg
- Kd [9]: 220 nM
- AUC(0-inf) [3]: 4940 ng·h/mL
- Cmax [10]: 1580 ng/mL
- IC50 [1]: 364 nM
- bioavailability [11]: 72%
- Cmax ([2]; CD-1, mouse, read-out: Cmax): 2220 ng/mL
Structure (SMILES): Cc1noc(C)c1-c1ccc2nc(-c3cnn(CC(C)(C)O)c3)nc(N3CCOC[C@@H]3c3cccs3)c2c1
- IC50 (MV4-11): 1950 nM

- Kd [9]: 110 nM
Structure (SMILES): Cc1noc(C)c1-c1ccc2nc(-c3cnn(CC(=O)N(C)C)c3)nc(N3CCOC[C@@H]3c3ccccc3)c2c1
- IC50 (MV4-11): 1800 nM

- half-life [4]: 2.6 h
- AUC(0-inf) [5]: 26100 ng·h/mL
- clearance [6]: 5.9 mL/min/kg
- half-life [7]: 2.8 h
- Vd [8]: 1.47 L/kg
- t1/2 [12]: 0.867 h
- Kd [9]: 58 nM
- AUC(0-inf) [3]: 5790 ng·h/mL
- Cmax [10]: 1590 ng/mL
- IC50 [1]: 13 nM
- bioavailability [11]: 90%
- Cmax ([2]; CD-1, mouse, read-out: Cmax): 2080 ng/mL
Structure (SMILES): Cc1noc(C)c1-c1ccc2nc(-c3cnn(CC(C)(C)O)c3)nc(N3CCOC[C@@H]3c3ccc(F)cc3)c2c1
- IC50 (MV4-11): 1270 nM

- Kd [9]: 85 nM
Structure (SMILES): CNC(=O)Cn1cc(-c2nc(N3CCOC[C@@H]3c3ccccc3)c3cc(-c4c(C)noc4C)ccc3n2)cn1
- IC50 (MV4-11): 1010 nM

- Kd [9]: 88 nM
- AUC [3]: 123 ng·h/mL
Structure (SMILES): Cc1noc(C)c1-c1ccc2nc(-c3cnn(CC(C)(C)O)c3)nc(N3CCNC[C@@H]3c3ccccc3)c2c1
- IC50 (MV4-11): 590 nM

- Kd [9]: 87 nM
Structure (SMILES): Cc1noc(C)c1-c1ccc2nc(-c3cnn(C(C)(C)CO)c3)nc(N3CCOC[C@@H]3c3ccccc3)c2c1
- IC50 (MV4-11): 1970 nM
